pIC50: −log10 of the molar value. Where a name gives a salt, the structure may show the parent alone.

The subject of data set [1] is NCI-H292. Kind of data set: MTT assay, cytotoxic effect on NCI-H292. Format: cell-based, human. Particulars: Table 2, metabolites, MTT after 96 h. As for the experimental part: NCI-H292: human mucoepidermoid lung carcinoma cells, ATCC-CRL-1848, standard medium: RPMI 1640 (Biochrom; #FG1215, stab. glutamine)+10% FCS (Sigma; #F2442), TWEAKR-positive; EGFR-positive,
(§1) The cells were cultivated by the standard method, with the growth media specified in section C-1. The test was carried out by detaching the cells with a solution of Accutase in PBS (from Biochrom AG #L2143), pelletizing, resuspending in culture medium, counting and sowing into a 96-well culture plate with white bottom (from Costar #3610) (NCI H292: 2500 cells/well; SK-HEP-1: 1000 cells/well; KPL-4: 1200 cells/well; in total volume 100 μl). The cells were then incubated in an incubator at 37° C. and 5% carbon dioxide. After 48 h, the medium was replaced. The antibody drug conjugates in 10 μl of culture medium in concentrations from 10^−5M to 10^−13M were then pipetted to the cells (in triplicate), and the assay was then incubated in an incubator at 37° C. and 5% carbon dioxide. The suspension cells were counted and sown into a 96-well culture plate with white bottom (from Costar #3610) (#3610) (MOLM-13: 2000 cells/well; NB4: 7000 cells/well; MV-4-11: 5000 cells/well in a total volume of 100 μl). After 6 hours of incubation at 37° C. and 5% carbon dioxide, the medium was changed and the antibody-drug conjugates or metabolites were added by pipette in 10 μl of culture medium in concentrations of 10^−5M to 10^−13M to the cells (triplicates) in 90 μl. The batch was incubated in an incubator at 37° C. and 5% carbon dioxide. After 96 h, the cell proliferation was detected using the MTT assay (ATCC, Manassas, Va., USA, catalogue No. 30-1010K). To this end, the MTT reagent was incubated with the cells for 4 h, followed by lysis of the cells overnight by addition of the detergent. The dye formed was detected at 570 nm (Infinite M1000 pro, Tecan). The measured data were used to calculate the IC50 of the growth inhibition using the DRC (dose response curve). The proliferation of cells which were not treated with test substance but were otherwise identically treated was defined as the 100% figure.
On the technique in general: Tetrazolium dyes change colour on reduction, which living cells bring about.

The test system of data set [2] is SKHep-1. In words: MTT assay, cytotoxic effect on SK-HEP-1. It counts as cell-based, human. The note with it: Table 2, metabolites, MTT after 96 h. How it is done:
SK-HEP-1: human liver cell cancer line, ATCC No. HTB-52, standard medium: MEM with Earle's salts+Glutamax I (Invitrogen 41090)+10% heat inactivated FCS (from Gibco, No. 10500-064); TWEAKR-positive
as §1, with “The proliferation of cells which were not treated with test substance but were otherwise identically treated was defined as the 100% figure.” left out

Data set [3] deals with MV-4-11. In words: MTT assay, cytotoxic effect on MV-4-11. It counts as cell-based, human. Particulars: Table 2; metabolites; MTT after 96 h. As for the experimental part: (§2) C-1a: Determination of the Cytotoxic Effect of the ADCs Directed Against CD123 and CXCR5
(§3) The analysis of the cytotoxic effect of the exemplary ADCs was carried out with various cell lines:
MV-4-11: human biphenotypic B myelomonocytic leukaemia cells obtained from peripheral blood, ATCC-CRL-9591, standard medium: IMDM (ATCC: 30-2005), +10% heat inactivated FCS (Gibco, No. 10500-064); CD123-positive
(§4) The cells were cultivated by the standard method, with the growth media specified in section C-1. The test was carried out by detaching the cells with a solution of Accutase in PBS (from Biochrom AG #L2143), pelletizing, resuspending in culture medium, counting and sowing into a 96-well culture plate with white bottom (from Costar #3610) (NCI H292: 2500 cells/well; SK-HEP-1: 1000 cells/well; KPL-4: 1200 cells/well; in total volume 100 μl). […] The suspension cells were counted and sown into a 96-well culture plate with white bottom (from Costar #3610) (#3610) (MOLM-13: 2000 cells/well; NB4: 7000 cells/well; MV-4-11: 5000 cells/well in a total volume of 100 μl). […] After 96 h, the cell proliferation was detected using the MTT assay (ATCC, Manassas, Va., USA, catalogue No. 30-1010K). […] The dye formed was detected at 570 nm (Infinite M1000 pro, Tecan). The measured data were used to calculate the IC50 of the growth inhibition using the DRC (dose response curve). […]

Data set [4] has as its system MOLM-13. In words: MTT assay, cytotoxic effect on MOLM-13. Particulars: Table 2; metabolites; MTT after 96 h. It counts as cell-based, human. How it is done:
as §2, §3
MOLM-13: human acute monocytic leukaemia cells (AML-M5a), DSMZ, No. ACC 554, standard medium: RPMI 1640 (from Gibco; #21875-059, stab. L-glutamine)+20% heat inactivated FCS (Gibco, No. 10500-064); CD123-positive.
as §4

The subject of data set [5] is KPL-4. In words: MTT assay, cytotoxic effect on KPL-4. It counts as cell-based, human. The note with it: Table 2; metabolites; MTT after 96 h. As for the experimental part:
KPL4: human breast cancer cell line, Bayer Pharma AG (identity checked and confirmed on 19 Jul. 2012 at DSMZ), standard medium: RPMI 1640 (from Gibco; #21875-059, stab. L-glutamine)+10% heat inactivated FCS (Gibco, No. 10500-064); HER2-positive.
The cells were cultivated by the standard method, with the growth media specified in section C-1. The test was carried out by detaching the cells with a solution of Accutase in PBS (from Biochrom AG #L2143), pelletizing, resuspending in culture medium, counting and sowing into a 96-well culture plate with white bottom (from Costar #3610) (NCI H292: 2500 cells/well; SK-HEP-1: 1000 cells/well; KPL-4: 1200 cells/well; in total volume 100 μl). The cells were then incubated in an incubator at 37° C. and 5% carbon dioxide. After 48 h, the medium was replaced. […] The suspension cells were counted and sown into a 96-well culture plate with white bottom (from Costar #3610) (#3610) (MOLM-13: 2000 cells/well; NB4: 7000 cells/well; MV-4-11: 5000 cells/well in a total volume of 100 μl). […] After 96 h, the cell proliferation was detected using the MTT assay (ATCC, Manassas, Va., USA, catalogue No. 30-1010K). […] The dye formed was detected at 570 nm (Infinite M1000 pro, Tecan). The measured data were used to calculate the IC50 of the growth inhibition using the DRC (dose response curve). […]

Data set [6] addresses T1, human kinesin spindle protein KSP/Eg5 (Homo sapiens, UniProt P52732).
T1 construct: The motor domain of the human kinesin spindle protein KSP/Eg5; purchased tebu-bio/Cytoskeleton Inc 027EG01-XL
T1 sequence (P52732 18-359 limits assumed): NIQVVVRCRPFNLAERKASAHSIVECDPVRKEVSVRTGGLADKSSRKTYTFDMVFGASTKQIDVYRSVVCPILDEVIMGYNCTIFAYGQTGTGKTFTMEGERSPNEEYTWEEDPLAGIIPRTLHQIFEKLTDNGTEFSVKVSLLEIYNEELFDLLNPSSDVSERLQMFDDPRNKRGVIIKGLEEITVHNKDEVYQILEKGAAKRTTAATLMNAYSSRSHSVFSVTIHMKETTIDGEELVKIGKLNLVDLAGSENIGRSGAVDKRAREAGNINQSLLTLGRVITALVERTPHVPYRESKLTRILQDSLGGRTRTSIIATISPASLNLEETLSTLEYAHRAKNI
In words: Inhibition of the kinesin spindle protein KSP/Eg5 (ATPase activity, malachite green). Format: biochemical. The note with it: motor domain 10 nM, microtubuli, ATP 500 μM, 2 h RT. How it is done: The motor domain of the human kinesin spindle protein KSP/Eg5 (tebu-bio/Cytoskeleton Inc, No. 027EG01-XL) was incubated in a concentration of 10 nM with microtubuli (bovine or porcine, tebu-bio/Cytoskeleton Inc) stabilized with 50 μg/ml taxol (Sigma No. T7191-5MG) for 5 min at RT in 15 mM PIPES, pH 6.8 (5 mM MgCl2 and 10 mM DTT, Sigma). […] Incubation was at RT for 2 h. ATPase activity was detected by detecting the inorganic phosphate formed using malachite green (Biomol). […] The positive controls used were monastrol (Sigma, M8515-1 mg) and ispinesib (AdooQ Bioscience A10486). The individual data of the dose-activity curve are eight-fold determinations. The IC50 values are means of two independent experiments.

Data set [7] relates to Caco-2 cells. In words: Cell permeability, flux assay using Caco-2 cells. Format: in vitro ADME. The note with it: for Papp (B-A): Caco-2, basal to apical, 2 hours. How it is done: The cell permeability of a substance can be investigated by means of in vitro testing in a flux assay using Caco-2 cells [M. D. Troutman and D. R. Thakker, Pharm. […] For this purpose, the cells were cultured for 15-16 days on 24-well filter plates. For the determination of permeation, the respective test substance was applied in a HEPES buffer to the cells either apically (A) or basally (B) and incubated for 2 hours. After 0 hours and after 2 hours, samples were taken from the cis and trans compartments. The samples were separated by HPLC (Agilent 1200, Böblingen, Germany) using reverse phase columns. The HPLC system was coupled via a Turbo Ion Spray Interface to a Triple Quadropole mass spectrometer API 4000 (AB SCIEX Deutschland GmbH, Darmstadt, Germany).
Of critical importance for toxophores which are released intracellularly is the permeability from B to A [Papp (B-A)] and the ratio of Papp (B-A) to Papp (A-B) (efflux ratio): The lower this permeability, the slower the active and passive transport processes of the substance through the monolayer of Caco-2 cells. If the efflux ratio, moreover, gives no indications as to active transport, the substance, following intracellular release, can remain in the cell for longer. As a consequence, the time available for interaction with the biochemical target (here: kinesin spindle protein KSP/Eg5) also increases.

One may read the pIC50 as −log10 of the IC50, conventionally taken in molar units. `CC(C)(C)[C@H](c1cc(-c2cc(F)ccc2F)cn1Cc1ccccc1)N(CC[C@H](N)C(=O)NCCNC(=O)CNC(=O)C(CC(=O)O)SC[C@H](N)C(=O)O)C(=O)CO` (mixture of isomers) [Example Rm2, 4-[(2-{[2-({(2S)-2-Amino-4-[{(1R)-1-[1-benzyl-4-(2,5-difluorophenyl)-1H-pyrrol-2-yl]-2,2-dimethylpropyl}(glycoloyl)amino]butanoyl}amino)ethyl]amino}-2-oxoethyl)amino]-3-{[(2R)-2-amino-2-carboxyethyl]sulfanyl}-4-oxobutanoic Acid Trifluoroacetic Acid Salt]: the pIC50 was 6.56 in data set [1] (Homo sapiens, NCI-H292) and 7.05 in data set [2] (Homo sapiens, SK-HEP1).

On to `CC(C)(C)[C@H](c1cc(-c2cc(F)ccc2F)cn1Cc1ccccc1)N(CC[C@H](N)C(=O)NCCNC(=O)[C@@H](CCC(=O)O)NC(=O)CNC(=O)CC(SC[C@H](N)C(=O)O)C(=O)O)C(=O)CO.O=C(O)C(F)(F)F` (stereo partly drawn) [Example M1, N-(3-{[(2R)-2-Amino-2-carboxyethyl]sulfanyl}-3-carboxypropanoyl)glycyl-N-[2-({(25)-2-amino-4-[{(1R)-1-[1-benzyl-4-(2,5-difluorophenyl)-1H-pyrrol-2-yl]-2,2-dimethylpropyl}(glycoloyl)amino]butanoyl}amino)ethyl]-D-alpha-glutamine trifluoroacetic Acid Salt], for which the pIC50 in data set [3] is 6.52; in data set [4], 6.90; in data set [1], 6.30; in data set [2], 7.01; in data set [5], 6.30; in data set [6], 8.67. In addition, the “Papp (B-A)” value in data set [7] is 0.12 ×10⁻⁶ cm/s. In addition, in data set [7] (Caco-2, in words), the “Efflux ratio compared with the reference metabolites” value was “reduced efflux ratio”. For the same compound, the “Transport from the cell compared with the reference metabolites” value in data set [7] (Caco-2, in words) is on record as “reduced transport from the cell”. In data set [7] (Caco-2, ratio of Papp (B-A) to Papp (A-B)), the Efflux ratio is reported as 0.8.

Turning to `CC(C)(C)[C@H](c1cc(-c2cc(F)ccc2F)cn1Cc1ccccc1)N(CC[C@H](N)C(=O)NCCNC(=O)CNC(=O)CC(SC[C@H](N)C(=O)O)C(=O)O)C(=O)CO` (mixture of isomers) [Example Rm1, 4-[(2-{[2-({(2S)-2-Amino-4-[{(1R)-1-[1-benzyl-4-(2,5-difluorophenyl)-1H-pyrrol-2-yl]-2,2-dimethylpropyl}(glycoloyl)amino]butanoyl}amino)ethyl]amino}-2-oxoethyl)amino]-2-{[(2R)-2-amino-2-carboxyethyl]sulfanyl}-4-oxobutanoic Acid Trifluoroacetic Acid Salt], the pIC50 in data set [1] (Homo sapiens, NCI-H292) is 7.20; in data set [2] (Homo sapiens, SK-HEP1) it was 7.72. Also, the “Papp (B-A)” value in data set [7] was 1.3 ×10⁻⁶ cm/s.

Values taken from patent US11433140B2, “Specific antibody drug conjugates (ADCs) having KSP inhibitors” (Bayer Pharma Aktiengesellschaft, priority 2016, dated 2022).
